pIC50: −log10 of the molar value. Where two headings read alike, the source gives them in different places.
Columns and labels:
[1] = target: human TLR9 (Homo sapiens (Human), UniProt Q9NR96); assay: TLR9 inhibition reporter assay (HEK-Blue cells, SEAP reporter, ODN2006 stimulation);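 note: compounds tested over 0.05 nM to 50 µM, 22 h incubation, inhibition taken as SEAP signal drop from agonist plus DMSO wells toward a known inhibitor control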
[2] = target: human TLR8 (Homo sapiens (Human), UniProt Q9NR97); assay: TLR8 inhibition reporter assay (HEK-Blue cells, SEAP reporter, R848 stimulation);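 note: compounds tested from 0.05 nM to 50 µM, 22 h at 37 °C, SEAP measured with HEK-Blue Detection, inhibition relative to agonist plus DMSO versus a known inhibitor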
Sequence of human TLR8 (Q9NR97 27-1041): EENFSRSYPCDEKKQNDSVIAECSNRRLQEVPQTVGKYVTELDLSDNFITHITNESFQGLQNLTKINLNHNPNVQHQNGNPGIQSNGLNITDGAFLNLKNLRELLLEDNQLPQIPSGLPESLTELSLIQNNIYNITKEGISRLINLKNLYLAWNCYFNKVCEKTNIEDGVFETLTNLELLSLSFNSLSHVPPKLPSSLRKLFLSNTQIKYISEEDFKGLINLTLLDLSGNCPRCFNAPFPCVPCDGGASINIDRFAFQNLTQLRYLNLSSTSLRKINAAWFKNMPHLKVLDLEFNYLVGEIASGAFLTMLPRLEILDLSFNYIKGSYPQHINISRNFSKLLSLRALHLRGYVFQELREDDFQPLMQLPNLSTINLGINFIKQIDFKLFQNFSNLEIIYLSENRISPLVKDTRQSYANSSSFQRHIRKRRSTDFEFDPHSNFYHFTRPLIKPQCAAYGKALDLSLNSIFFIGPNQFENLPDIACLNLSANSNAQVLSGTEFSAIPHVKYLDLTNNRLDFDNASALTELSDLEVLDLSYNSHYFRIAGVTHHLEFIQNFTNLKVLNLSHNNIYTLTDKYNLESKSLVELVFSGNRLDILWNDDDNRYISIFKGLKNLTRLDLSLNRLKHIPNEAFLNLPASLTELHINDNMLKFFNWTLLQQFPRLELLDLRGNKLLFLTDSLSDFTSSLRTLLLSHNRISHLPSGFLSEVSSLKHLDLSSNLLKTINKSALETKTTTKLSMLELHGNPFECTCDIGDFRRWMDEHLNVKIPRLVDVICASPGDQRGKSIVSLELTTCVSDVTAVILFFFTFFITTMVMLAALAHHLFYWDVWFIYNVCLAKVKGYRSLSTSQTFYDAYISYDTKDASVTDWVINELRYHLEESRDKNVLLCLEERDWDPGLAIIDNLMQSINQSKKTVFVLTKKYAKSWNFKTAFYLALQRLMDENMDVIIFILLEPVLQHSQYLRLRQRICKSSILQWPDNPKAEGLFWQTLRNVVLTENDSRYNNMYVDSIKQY

[3] = target: human TLR7 (Homo sapiens (Human), UniProt Q9NYK1); assay: TLR7 inhibition reporter assay (HEK-Blue cells, SEAP reporter, gardiquimod stimulation); assay type: cell-based
Sequence of human TLR7 (Q9NYK1 27-1049): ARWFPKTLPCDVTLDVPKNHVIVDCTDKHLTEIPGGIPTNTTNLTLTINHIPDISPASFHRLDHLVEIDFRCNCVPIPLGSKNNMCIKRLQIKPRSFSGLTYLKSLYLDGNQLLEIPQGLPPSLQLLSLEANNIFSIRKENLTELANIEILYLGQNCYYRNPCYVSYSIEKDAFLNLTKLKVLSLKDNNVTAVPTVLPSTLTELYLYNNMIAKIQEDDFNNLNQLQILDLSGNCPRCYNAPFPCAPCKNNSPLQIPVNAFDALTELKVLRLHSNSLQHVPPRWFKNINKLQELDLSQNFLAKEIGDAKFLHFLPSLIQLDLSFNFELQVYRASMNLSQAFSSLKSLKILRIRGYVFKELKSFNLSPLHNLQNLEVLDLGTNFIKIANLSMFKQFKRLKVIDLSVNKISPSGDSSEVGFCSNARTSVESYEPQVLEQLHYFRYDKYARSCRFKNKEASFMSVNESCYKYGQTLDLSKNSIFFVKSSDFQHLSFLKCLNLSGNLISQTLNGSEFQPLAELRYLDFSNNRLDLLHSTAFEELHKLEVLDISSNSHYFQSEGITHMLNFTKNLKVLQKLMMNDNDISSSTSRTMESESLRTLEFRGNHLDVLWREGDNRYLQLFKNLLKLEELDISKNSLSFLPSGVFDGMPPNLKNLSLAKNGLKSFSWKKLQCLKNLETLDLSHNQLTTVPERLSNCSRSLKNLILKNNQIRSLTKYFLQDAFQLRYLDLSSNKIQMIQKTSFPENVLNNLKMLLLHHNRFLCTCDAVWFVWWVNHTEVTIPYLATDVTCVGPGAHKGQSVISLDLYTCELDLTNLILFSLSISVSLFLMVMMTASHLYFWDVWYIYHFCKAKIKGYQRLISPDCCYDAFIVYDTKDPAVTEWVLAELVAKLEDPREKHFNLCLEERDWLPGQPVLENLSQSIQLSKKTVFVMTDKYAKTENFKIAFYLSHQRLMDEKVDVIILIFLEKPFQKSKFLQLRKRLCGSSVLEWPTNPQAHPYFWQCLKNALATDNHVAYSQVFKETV

[4] = read-out: TLR9 IC50, HEK-Blue cells overexpressing human TLR9, ODN2006 5 nM
[5] = read-out: TLR8 IC50, HEK-Blue cells overexpressing human TLR8, R848 15.9 μM
[6] = HEK-Blue cells overexpressing human TLR7, gardiquimod 7.5 μM
[7] = read-out: TLR9 IC50, HEK-Blue cells, ODN2006 5 nM
[8] = read-out: TLR8 IC50, HEK-Blue cells, R848 15.9 μM
[9] = HEK-Blue cells, gardiquimod 7.5 μM

Sequence of human TLR9 (Q9NR96 26-1032): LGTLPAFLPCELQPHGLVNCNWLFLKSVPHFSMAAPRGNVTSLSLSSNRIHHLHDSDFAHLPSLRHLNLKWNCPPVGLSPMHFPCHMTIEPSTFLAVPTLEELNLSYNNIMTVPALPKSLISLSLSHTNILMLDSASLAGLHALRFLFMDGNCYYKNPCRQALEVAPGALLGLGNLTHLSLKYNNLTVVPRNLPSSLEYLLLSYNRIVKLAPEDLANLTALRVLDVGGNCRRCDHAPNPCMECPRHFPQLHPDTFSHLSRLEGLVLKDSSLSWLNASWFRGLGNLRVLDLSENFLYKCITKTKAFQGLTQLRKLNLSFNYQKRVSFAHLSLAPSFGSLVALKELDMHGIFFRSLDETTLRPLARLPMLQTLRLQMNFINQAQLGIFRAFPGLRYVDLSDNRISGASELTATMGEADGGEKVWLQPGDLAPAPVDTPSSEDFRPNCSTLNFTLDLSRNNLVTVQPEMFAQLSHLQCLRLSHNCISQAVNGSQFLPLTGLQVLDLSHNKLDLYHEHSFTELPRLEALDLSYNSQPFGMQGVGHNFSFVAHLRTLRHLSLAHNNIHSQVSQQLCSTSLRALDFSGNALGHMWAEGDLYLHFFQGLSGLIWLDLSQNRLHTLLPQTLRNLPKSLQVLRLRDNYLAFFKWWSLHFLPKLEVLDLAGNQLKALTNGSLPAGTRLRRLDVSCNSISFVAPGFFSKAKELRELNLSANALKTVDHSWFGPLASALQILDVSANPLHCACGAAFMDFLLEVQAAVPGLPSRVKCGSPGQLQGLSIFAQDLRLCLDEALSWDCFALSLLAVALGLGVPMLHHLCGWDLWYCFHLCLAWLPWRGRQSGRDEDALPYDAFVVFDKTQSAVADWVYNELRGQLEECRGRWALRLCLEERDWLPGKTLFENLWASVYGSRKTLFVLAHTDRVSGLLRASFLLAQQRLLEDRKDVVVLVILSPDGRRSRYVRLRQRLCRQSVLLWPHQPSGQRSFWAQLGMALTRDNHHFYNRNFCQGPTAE

Row | pIC50 [1, 4] | pIC50 [2, 5] | pIC50 [3, 6] | pIC50 [1, 7] | pIC50 [2, 8] | pIC50 [3, 9] | pIC50 ([1]; TLR9 IC50, HEK-Blue cells overexpressing human TLR9, ODN2006 5 nM) | pIC50 ([2]; TLR8 IC50, HEK-Blue cells overexpressing human TLR8, R848 15.9 μM) | SMILES
1 | 6.06 | 7.18 | 7.92 |  |  |  |  |  | Cc1cc(-c2[nH]c3ccc(C4CCN(CC(=O)N5C[C@H](C)C[C@@H]5CO)CC4)cc3c2C(C)C)cc(C)n1 [Example 290, 2-(4-(2-(2,6-dimethylpyridin-4-yl)-3-isopropyl-1H-indol-5-yl)piperidin-1-yl)-1-((2R,4R)-2-(hydroxymethyl)-4-methylpyrrolidin-1-yl) ethan-1-one]
2 | 6.16 | 8.19 | 8.89 |  |  |  |  |  | Cc1cc(-c2[nH]c3ccc(C4CCN(C(=O)CN5CC[C@@H](O)C5)CC4)cc3c2C(C)C)cc(C)n1 [Example 391, (R)-1-(4-(2-(2,6-dimethylpyridin-4-yl)-3-isopropyl-1H-indol-5-yl)piperidin-1-yl)-2-(3-hydroxypyrrolidin-1-yl)ethan-1-one]
3 | 5.94 | 7.53 | 7.22 |  |  |  |  |  | Cc1cc(-c2[nH]c3ccc(C4CCN(CC(O)c5ccccc5)CC4)cc3c2C(C)C)ccn1 (stereo not drawn) [Example 662, 2-(4-(3-isopropyl-2-(2-methylpyridin-4-yl)-1H-indol-5-yl)piperidin-1-yl)-1-phenylethan-1-ol]
4 | 6.48 | 7.40 | 7.15 |  |  |  |  |  | CCc1c(-c2ccnc(C)c2)[nH]c2ccc(C3CCN(C(=O)C4CNC4)CC3)cc12 [Example 630, azetidin-3-yl (4-(3-ethyl-2-(2-methylpyridin-4-yl)-1H-indol-5-yl)piperidin-1-yl)methanone]
5 | 6.45 | 7.98 | 8.70 |  |  |  |  |  | Cc1cc(-c2[nH]c3ccc(C4CCN(C(=O)CN5CC[C@H](O)C5)CC4)cc3c2C(C)C)cc(C)n1 [Example 380, (S)-1-(4-(2-(2,6-dimethylpyridin-4-yl)-3-isopropyl-1H-indol-5-yl)piperidin-1-yl)-2-(3-hydroxypyrrolidin-1-yl)ethan-1-one]
6 | < 4.30 | 6.69 | 7.92 |  |  |  |  |  | Cc1cc(-c2[nH]c3ccc(C4CCN(C(=O)Cn5cncn5)CC4)cc3c2C(C)C)cc(C)n1 [Example 170, 1-(4-(2-(2,6-dimethylpyridin-4-yl)-3-isopropyl-1H-indol-5-yl)piperidin-1-yl)-2-(1H-1,2,4-triazol-1-yl)ethan-1-one]
7 | 5.90 | 7.20 | 8.09 |  |  |  |  |  | Cc1cc(-c2[nH]c3ccc(C4CCN(CC(=O)N5CCC[C@@H]5CO)CC4)cc3c2C(C)C)cc(C)n1 [Example 302, (R)-2-(4-(2-(2,6-dimethylpyridin-4-yl)-3-isopropyl-1H-indol-5-yl)piperidin-1-yl)-1-(2-(hydroxymethyl)pyrrolidin-1-yl) ethan-1-one]
8 |  |  |  | 4.55 | 6.76 | 7.26 |  |  | Cc1cc(-c2[nH]c3ccc(C4CCN(C(=O)C(=O)N(C)C)CC4)cc3c2C(C)C)ccn1 [Example 878, 2-(4-(3-isopropyl-2-(2-methylpyridin-4-yl)-1H-indol-5-yl)piperidin-1-yl)-N,N-dimethyl-2-oxoacetamide]
9 | 6.16 | 7.07 | 6.52 |  |  |  |  |  | CCc1c(-c2ccnc(OC)c2)[nH]c2ccc(C3CCN(C4CCN(CC)CC4)CC3)cc12 [Example 792, 3-ethyl-5-(1′-ethyl-[1,4′-bipiperidin]-4-yl)-2-(2-methoxypyridin-4-yl)-1H-indole]
10 | 4.38 | 6.83 | 7.97 |  |  |  |  |  | Cc1cc(-c2[nH]c3ccc(C4CCN(C(=O)C[C@H](C)O)CC4)cc3c2C(C)C)cc(C)n1 [Example 109, (S)-1-(4-(2-(2,6-dimethylpyridin-4-yl)-3-isopropyl-1H-indol-5-yl)piperidin-1-yl)-3-hydroxybutan-1-one]
11 | 6.15 | 7.14 | 7.64 |  |  |  |  |  | Cc1cc(-c2[nH]c3ccc(C4CCN(CC(=O)N(CCO)Cc5ccccc5)CC4)cc3c2C(C)C)cc(C)n1 [Example 293, N-benzyl-2-(4-(2-(2,6-dimethylpyridin-4-yl)-3-isopropyl-1H-indol-5-yl)piperidin-1-yl)-N-(2-hydroxyethyl)acetamide]
12 | 6.30 | 7.59 | 7.59 |  |  |  |  |  | CC(C)c1c(-c2ccnc(F)c2)[nH]c2ccc(C3CCN(C4CCN(C)CC4)CC3)cc12 [Example 523, 2-(2-fluoropyridin-4-yl)-3-isopropyl-5-(1′-methyl-[1,4′-bipiperidin]-4-yl)-1H-indole]
13 |  |  | 8.19 |  |  |  | 6.78 | 8.15 | Cc1cc(-c2[nH]c3ccc(C4CCN(CC(=O)N5CC(O)C5)CC4)cc3c2C(C)C)cc(C)n1 [Example 229, 2-(4-(2-(2,6-dimethylpyridin-4-yl)-3-isopropyl-1H-indol-5-yl)piperidin-1-yl)-1-(3-hydroxyazetidin-1-yl)ethan-1-one]
14 | 6.32 | 8.26 | 8.66 |  |  |  |  |  | Cc1cc(-c2[nH]c3ccc(C4CCN(C)CC4)cc3c2C(C)C)cc(C)n1 [Example 429, 2-(2,6-dimethylpyridin-4-yl)-3-isopropyl-5-(1-methylpiperidin-4-yl)-1H-indole]
15 |  |  |  | 5.77 | 7.91 | 7.42 |  |  | Cc1cc(-c2[nH]c3ccc(C4CCN(CC5CC5)CC4)cc3c2C(C)C)ccn1 [Example 866, 5-(1-(cyclopropylmethyl)piperidin-4-yl)-3-isopropyl-2-(2-methylpyridin-4-yl)-1H-indole]
16 | 6.71 | 7.79 | 8.92 |  |  |  |  |  | Cc1cc(-c2[nH]c3ccc(C4CCN(C(=O)[C@@H]5C[C@H](F)CN5)CC4)cc3c2C(C)C)cc(C)n1 [Example 196, (4-(2-(2,6-dimethylpyridin-4-yl)-3-isopropyl-1H-indol-5-yl)piperidin-1-yl)((2S,4S)-4-fluoropyrrolidin-2-yl)methanone]
17 |  |  |  | 6.03 | 7.47 | 7.27 |  |  | Cc1cc(-c2[nH]c3ccc(C4CCN(CC5CCCCC5)CC4)cc3c2C(C)C)ccn1 [Example 868, 5-(1-(cyclohexylmethyl)piperidin-4-yl)-3-isopropyl-2-(2-methylpyridin-4-yl)-1H-indole]
18 | 6.27 | 7.27 | 7.80 |  |  |  |  |  | Cc1cc(-c2[nH]c3ccc(C4CCNCC4)cc3c2CC(F)F)cc(C)n1 [Example 492, 3-(2,2-difluoroethyl)-2-(2,6-dimethylpyridin-4-yl)-5-(piperidin-4-yl)-1H-indole]
19 | 5.65 | 7.80 | 8.57 |  |  |  |  |  | Cc1cc(-c2[nH]c3ccc(C4CCN(CC(=O)NCCO)CC4)cc3c2C(C)C)cc(C)n1 [Example 222, 2-(4-(2-(2,6-dimethylpyridin-4-yl)-3-isopropyl-1H-indol-5-yl)piperidin-1-yl)-N-(2-hydroxyethyl)acetamide]
20 | 5.09 | 8.20 | 7.40 |  |  |  |  |  | Cc1cc(-c2[nH]c3ccc(C4CCN(CC(O)C(F)(F)F)CC4)cc3c2C(C)C)cc(C)n1 (stereo not drawn) [Example 313, 3-(4-(2-(2,6-dimethylpyridin-4-yl)-3-isopropyl-1H-indol-5-yl)piperidin-1-yl)-1,1,1-trifluoropropan-2-ol]
21 | 6.26 | 8.39 | 7.68 |  |  |  |  |  | COC(=O)C1CC(N2CCC(c3ccc4[nH]c(-c5ccnc(C)c5)c(C(C)C)c4c3)CC2)CCN1 (stereo not drawn) [Example 704, methyl 4-(3-isopropyl-2-(2-methylpyridin-4-yl)-1H-indol-5-yl)-[1,4′-bipiperidine]-2′-carboxylate]
